{"source": "patent US20100021989A1", "about": "“COMPOSITIONS AND METHODS OF CONTROLLING AND ADMINISTERING REDOX SPECIFIC FORMS OF DRUGS, FOODS AND DIETARY SUPPLEMENTS” (priority 2008, published 2010)", "key": {"[1]": {"tested_on": "HCMV (human cytomegalovirus)", "experiment": "Antiviral drug screen of EGCG, HCMV", "assay_type": "cell-based"}, "[2]": {"conditions": "cited from earlier work"}, "[3]": {"tested_on": "VZV (varicella zoster virus)", "experiment": "Antiviral drug screen of EGCG, VZV", "assay_type": "cell-based"}, "[4]": {"assay_type": "physicochemical", "source_text": "An electrochemical cell was fabricated using a fine porosity glass frit in one-inch-diameter glass tubing. The electrochemical cell houses the counter electrode and keeps the Ag/AgCl reference electrode and platinum working electrode separate from the counter electrode. This addition to the system allowed the preparation of bulk solution. The working electrode and reference electrode compartment was continuously stirred using a small stir bar and a magnetic stirrer to minimize gradient effects at the working electrode. The EGCG solutions were oxidized using a positive potential to a visual end point. UV-visible spectral data were collected during these experiments, including the absorbance at 270 nm and 320 nm, corresponding to the phenol and quinone forms of EGCG, respectively. In addition, the open cell potential was recorded as experiments progressed. The active redox potentials and experimental endpoints were determined based on current and visual color changes to oligomers. Due to solution evaporation over time, the ratio of absorbance at 320 nm divided by the absorbance at 270 nm was determined in order to account for overall absorption increases. […] In addition, the visual change in solution color from clear to yellow and pink was also monitored as an indicator of degree of oxidation. Stirred EGCG solutions in 0.1 M phosphate buffer with 0.1 M KCl at pH 6.0 were monitored. The open circuit potential was initially 220 mV. […] A duplicate solution was left uncovered on the table next to the electrochemical cell as the control. After seven hours, no change in either solution at 270 and 320 nm was found. At this point the experimental potential was increased to 1000 mV for a further 16 hours (Table 3A). […] The pH of the solutions remained 6.0 throughout the experiment. All data support the forced oxidation of EGCG at pH 6.0. Solutions were allowed to sit for two more days to observe the stability of the electrochemically-induced changes (Table 3C). Solutions were pH-modified following electrochemical oxidation to observe stability. […] These samples were open to air, and no other precautions were taken to prevent oxidation by atmospheric oxygen."}, "[5]": {"conditions": "cyclic voltammetry (Kilmartin and Hsu, 2003)"}, "[6]": {"conditions": "Control (no potential), pH 6.0, 43 hours"}, "[7]": {"conditions": "Control (no potential), pH 6.0, 55 hours"}, "[8]": {"conditions": "Control (no potential), pH 6.0, 68 hours"}, "[9]": {"conditions": "Control (no potential, uncovered), pH 6.0, 23 hours"}, "[10]": {"conditions": "Experiment, pH 6.0, 800 mV 7 h then 1000 mV 16 h, 23 hours"}, "[11]": {"conditions": "Experiment, pH 6.0, 1500 mV from 23 h, 43 hours"}, "[12]": {"conditions": "Experiment, pH 6.0, 1500 mV from 23 h, 55 hours"}, "[13]": {"conditions": "Experiment, pH 6.0, 1500 mV from 23 h, 68 hours"}, "[14]": {"conditions": "Experiment, pH 6.0, left to sit after electrochemical oxidation, 73 hours"}, "[15]": {"conditions": "Experiment, pH 6.0, left to sit after electrochemical oxidation, 79 hours"}, "[16]": {"conditions": "Experiment, pH 6.0, left to sit after electrochemical oxidation, 120 hours"}}, "note": "Like-named read-outs stand apart in the source and are kept apart here.", "data": [{"smiles": "O=C(O[C@@H]1Cc2c(O)cc(O)cc2O[C@@H]1c1cc(O)c(O)c(O)c1)c1cc(O)c(O)c(O)c1", "note": "[EGCG, (−)-Epigallocatechingallate]", "values": [{"measurement": "EC-50", "setting": "[1]; HCMV", "value": 6.9, "unit": "µg/mL"}, {"measurement": "EC-90", "setting": "[1]; HCMV", "value": 40, "unit": "µg/mL"}, {"measurement": "CC-50", "setting": "[1]; cytotoxicity in HCMV screen", "value": ">40", "unit": "µg/mL"}, {"measurement": "Oxidation peak potential, first range", "setting": "[2]; [5]", "value": 105, "unit": "mV"}, {"measurement": "Oxidation peak potential, second range", "setting": "[2]; [5]", "value": 213, "unit": "mV"}, {"measurement": "Reduction potential", "setting": "[2]; pH 7, versus a normal hydrogen electrode", "value": 430, "unit": "mV"}, {"measurement": "EC-50", "setting": "[3]; VZV", "value": 4.1, "unit": "µg/mL"}, {"measurement": "EC-90", "setting": "[3]; VZV", "value": ">40", "unit": "µg/mL"}, {"measurement": "CC-50", "setting": "[3]; cytotoxicity in VZV screen", "value": ">40", "unit": "µg/mL"}, {"measurement": "CC50, TOXICITY Neutral Red Uptake", "setting": "host cells", "value": "CC50 > 200"}, {"measurement": "Open circuit potential, initial", "setting": "[4]; 0.1 M phosphate buffer with 0.1 M KCl, pH 6.0", "value": 220, "unit": "mV"}, {"measurement": "320 nm/270 nm", "setting": "[4]; [6]", "value": 0.174}, {"measurement": "Absorbance 270 nm", "setting": "[4]; [6]", "value": 0.448}, {"measurement": "Absorbance 320 nm", "setting": "[4]; [6]", "value": 0.078}, {"measurement": "320 nm/270 nm", "setting": "[4]; [7]", "value": 0.178}, {"measurement": "Absorbance 270 nm", "setting": "[4]; [7]", "value": 0.471}, {"measurement": "Absorbance 320 nm", "setting": "[4]; [7]", "value": 0.084}, {"measurement": "320 nm/270 nm", "setting": "[4]; [8]", "value": 0.189}, {"measurement": "Absorbance 270 nm", "setting": "[4]; [8]", "value": 0.438}, {"measurement": "Absorbance 320 nm", "setting": "[4]; [8]", "value": 0.083}, {"measurement": "320 nm/270 nm", "setting": "[4]; [9]", "value": 0.170}, {"measurement": "Absorbance 270 nm", "setting": "[4]; [9]", "value": 0.424}, {"measurement": "Absorbance 320 nm", "setting": "[4]; [9]", "value": 0.072}, {"measurement": "320 nm/270 nm", "setting": "[4]; [10]", "value": 0.256}, {"measurement": "Absorbance 270 nm", "setting": "[4]; [10]", "value": 0.418}, {"measurement": "Absorbance 320 nm", "setting": "[4]; [10]", "value": 0.107}, {"measurement": "320 nm/270 nm", "setting": "[4]; [11]", "value": 0.396}, {"measurement": "Absorbance 270 nm", "setting": "[4]; [11]", "value": 0.432}, {"measurement": "Absorbance 320 nm", "setting": "[4]; [11]", "value": 0.171}, {"measurement": "320 nm/270 nm", "setting": "[4]; [12]", "value": 0.467}, {"measurement": "Absorbance 270 nm", "setting": "[4]; [12]", "value": 0.422}, {"measurement": "Absorbance 320 nm", "setting": "[4]; [12]", "value": 0.197}, {"measurement": "320 nm/270 nm", "setting": "[4]; [13]", "value": 0.522}, {"measurement": "Absorbance 270 nm", "setting": "[4]; [13]", "value": 0.429}, {"measurement": "Absorbance 320 nm", "setting": "[4]; [13]", "value": 0.224}, {"measurement": "320 nm/270 nm", "setting": "[4]; [14]", "value": 0.533}, {"measurement": "Absorbance 270 nm", "setting": "[4]; [14]", "value": 0.430}, {"measurement": "Absorbance 320 nm", "setting": "[4]; [14]", "value": 0.229}, {"measurement": "320 nm/270 nm", "setting": "[4]; [15]", "value": 0.538}, {"measurement": "Absorbance 270 nm", "setting": "[4]; [15]", "value": 0.426}, {"measurement": "Absorbance 320 nm", "setting": "[4]; [15]", "value": 0.229}, {"measurement": "320 nm/270 nm", "setting": "[4]; [16]", "value": 0.546}, {"measurement": "Absorbance 270 nm", "setting": "[4]; [16]", "value": 0.436}, {"measurement": "Absorbance 320 nm", "setting": "[4]; [16]", "value": 0.238}, {"measurement": "Stability of electrochemically oxidized solution (320 nm absorbance)", "setting": "[4]; pH 6", "value": "stable for over two days"}, {"measurement": "Oxidation of control sample", "setting": "[4]; pH 6.0, no potential, uncovered, 23 hours", "value": "did not oxidize"}, {"measurement": "Stability of pH-modified solution after electrochemical oxidation (FIG. 14)", "setting": "[4]; pH 6.26", "value": "relatively stable after 7 days"}]}]}
